In US9549912B2, “Methods for treating atrial fibrillation” (Armetheon, Inc., priority 2009, dated 2017):

What was measured:
[1] = Trough plasma concentrations of ATI-2042 and metabolites (Example 1); type: in vivo, human
Protocol: Patients were enrolled within 8 weeks of screening. During the study, they were reviewed on days 1, 2, and 8 of each study period. ATI-2042 was increased on day 1 of each 2-week study period, following routine bloods for haematology, biochemistry, and coagulation screens. Plasma samples for pharmacokinetic analysis of ATI-2042 and its metabolites were taken at steady state at the end of each study period just prior to the first escalated dose of the subsequent period and within 15 min prior to the pre-dose ECG for that dose.
Trough concentrations of ATI-2042 and its metabolites (ATI-2000, ATI-2100, and ATI-2142), measured at pre-dose on day 1 of each of the four treatment periods and on days 1 and 8 of the washout period, were summarized by time point. Spearman's rank correlation was used to examine the relationship between trough concentrations of ATI-2042 and AFB.

[2] = tested on: patients with paroxysmal atrial fibrillation (PAF); assay: Randomized, double-blind, placebo-controlled study of budiodarone in PAF patients with pacemakers: AT/AF burden, episodes, NSR, GCI (Example 2); type: in vivo, human
Excerpt: The objective of the study is to determine the efficacy of budiodarone in reducing atrial tachyarrhythmia (AT/AF) burden in patients with paroxysmal atrial fibrillation (PAF) compared to placebo, for 12 weeks of treatment, and the safety and tolerability of budiodarone for up to 12 weeks of treatment.
Secondary: to study the effect of budiodarone versus placebo on the number and duration of AT/AF episodes, duration of normal sinus rhythm (NSR) between episodes of AT/AF and on symptoms associated with PAF.
Example 2 describes a multicenter, multinational, randomized, double-blind, placebo-controlled, parallel-group study of the efficacy and safety of budiodarone in patients with PAF. Planned enrollment was up to 140 patients (with eventually 110 enrolled) with proven PAF who had permanently implanted pacemakers with appropriate AT/AF diagnostic and recording capabilities. Potential study participants underwent screening assessments, including the optimization of pacemaker programming for accurate AT/AF detection. Within 30 days after screening assessments began, eligible patients entered a 4-week baseline period (Period 1) when baseline atrial fibrillation burden (AFB) was established followed by randomization to one of three active treatment regimens or placebo for a 12-week treatment period (Period 2), followed by a 4-week washout period (Period 3). During the treatment period, patients received twice-daily (BID) oral doses of 200 mg ATI-2042, 400 mg ATI-2042, 600 mg ATI-2042, or placebo. No study drug was given during the baseline and washout periods.
To be randomized, study participant must have had: an AT/AF burden between 5% and 70% during the baseline period; no evidence of persistent AF (i.e., 7 or more consecutive days of AT/AF with episodes lasting >23 hours); able to have pacemaker atrial antitachyarrhythmia treatment algorithms turned off for the remaining duration of the study.
Efficacy outcome measures were AT/AF burden (total time spent in AT/AF as a percentage of total observation time), number and mean duration of AT/AF episodes, mean duration of NSR, patient global clinical impression (GCI) questionnaire, and University of Toronto Atrial Fibrillation Severity Scale (AFSS).
Statistical methods for efficacy: The primary efficacy analysis was the percent change in the AT/AF burden from baseline to the 12-week treatment period. Pairwise comparisons between each ATI-2042 dose group and the placebo group were performed using the Wilcoxon rank sum test. The primary analysis was based on the mITT population.
For all variables based on the pacemaker data, the Wilcoxon rank sum test was used to compare each ATI-2042 dose group to the placebo group. The Jonckheere-Terpstra test was used to test for a dose response. The Wilcoxon signed rank test was used to test for a significant change from baseline within each treatment group. An analysis of covariance (ANCOVA) was used to compare the percent change from baseline in AT/AF burden among the treatment groups after adjusting for the baseline AT/AF burden. The ANCOVA model contained effects for treatment group and baseline AT/AF burden.
For patient […], the Cochran-Mantel-Haenszel test was used to compare each ATI-2042 dose group to the placebo group. The Jonckheere-Terpstra test was used to test for a dose response.

[3] = Safety and tolerability (Example 2); type: in vivo, human
Excerpt: Safety: treatment-emergent adverse event (TEAE) type, severity, and incidence; clinical laboratory assessments, including thyroid function and testicular function (males); coagulation tests; vital signs; physical examinations; ECGs; eye examinations; chest X-rays; and pulmonary function tests.
Statistical methods for safety: Adverse events (AEs) were summarized by system organ class and preferred term. Laboratory parameters and vital signs were summarized by descriptive statistics and shift tables were also created for laboratory parameters. The percent of patients with physical examination findings that changed over the study, with ECG abnormalities by visit, and with corneal deposits were summarized. Chest X-rays and pulmonary function test results were provided in listings.

[4] = tested on: sodium, potassium, and calcium ion channels; assay: Electrophysiological activity in animals: ion channel inhibition
[5] = Metabolism and elimination features of budiodarone
[6] = 600 mg BID, Treatment Months 1-3, ITT
[7] = 600 mg BID, Treatment Months 1-3, mITT

Substance: (S)-sec-butyl 2-(3-(4-(2-(diethylamino)ethoxy)-3,5-diiodobenzoyl)benzofuran-2-yl)acetate [ATI-2042]
- mean trough level of ATI-2042 ([1]; 200 mg bid, steady state): 2.4 ± 0.9 ng/mL
- mean trough level of ATI-2042 ([1]; 400 mg bid): 5.2 ± 1.7 ng/mL
- mean trough level of ATI-2042 ([1]; 600 mg bid): 13.1 ± 5.6 ng/mL
- mean trough level of ATI-2042 ([1]; 800 mg bid): 19.8 ± 17.9 ng/mL
- trough level of ATI-2042 ([1]; washout): 0.3+0.4 ng/mL
- decrease in AFB ([2]; 200 mg BID, mITT population, not statistically significant): 10%
- median percent reduction from baseline in AT/AF burden ([2]; 400 mg BID, Treatment Months 1-3, ITT population): 54%
- median percent reduction from baseline in AT/AF burden ([2]; 400 mg BID, Treatment Months 1-3, mITT population): 54%
- AF episodes lasting 24 hours (FIG. 6) ([2]; 400 mg dose cohort): only a single 24 hour episode
- patients with AF eradicated during the study period ([2]; 600 mg): More than half the patients had their AF eradicated
- reduction of number and duration of AF episodes below baseline (FIG. 3) ([2]; 600 mg): about 70%
- median percent reduction in AT/AF burden ([2]; 600 mg BID, Treatment Month 3, ITT population): 80%
- median percent reduction in AT/AF burden ([2]; 600 mg BID, Treatment Month 3, mITT population): 83%
- median percent change from baseline in duration of AT/AF episodes [2, 6]: −51.3%
- median percent change from baseline in number of AT/AF episodes [2, 6]: −52.9%
- median percent increase from baseline in duration of NSR [2, 6]: 208.8%
- median percent reduction from baseline in AT/AF burden ([2]; 600 mg BID, Treatment Months 1-3, ITT population): 74%
- median percent change from baseline in duration of AT/AF episodes [2, 7]: −51.3%
- median percent change from baseline in number of AT/AF episodes [2, 7]: −62.1%
- median percent increase from baseline in duration of NSR [2, 7]: 241.8%
- median percent reduction from baseline in AT/AF burden ([2]; 600 mg BID, Treatment Months 1-3, mITT population): 75%
- median percentage reduction in AFB ([2]; 600 mg BID, third month, paragraph refers to ITT population): 83%
- AF episodes lasting 24 or more hours (FIG. 6) ([2]; 600 mg dose group): no patients experienced an AF episode lasting 24 or more hours
- decrease in number of AT/AF episodes (median percent change from baseline, FIG. 3) ([2]; 600 mg, all three treatment months): more than 60%
- median AF episode duration ([2]; 600 mg, month 3): 0
- decrease in duration of episodes (median percent change from baseline, FIG. 3) ([2]; 600 mg, treatment month 1): more than 50%
- decrease in duration of episodes (median percent change from baseline, FIG. 3) ([2]; 600 mg, treatment month 2): more than 70%
- decrease in duration of episodes (median percent change from baseline, FIG. 3) ([2]; 600 mg, treatment month 3): ~70%
- mean episode duration (FIG. 4) ([2]; 600 mg, down from nearly 24): less than 1 hour
- Patient GCI: patients a lot or completely satisfied with the test medication ([2]; ITT population, dose group not stated): 60.0%
- Patient GCI: patients reporting a lot of improvement or complete relief ([2]; dose group not stated, ITT and mITT both named): 46.7%
- AFB after one-month washout ([2]; each of the three dose groups): returned to essentially the baseline values
- tolerability ([3]; 200, 400, 600 mg BID, up to 12 weeks): well tolerated
- creatinine ([3]; BUN unchanged): reversible elevation
- ALT ([3]; appeared dose related): mild, reversible increase
- corneal deposits (slit-lamp examination) ([3]; end of treatment period): No patient treated with ATI-2042 developed corneal deposits
- SAEs possibly related to drug ([3]; hematuria and high INR): Only one SAE was possibly related
- amiodarone-like end-organ toxicity (pulmonary fibrosis, corneal deposits, neuropathy, photosensitivity) ([3]; in vivo): No evidence of amiodarone-like end-organ toxicity was seen
- thyroid function changes ([3]; in vivo): mild and reversible
- most frequent TEAEs ([3]; patients on concomitant warfarin): changes in INR values
- inhibition of sodium, potassium, and calcium ion channels [4]: inhibition comparable with amiodarone
- metabolism [5]: primarily metabolized by esterases
- pharmacokinetic features [5]: short half-life, rapid onset and offset, small volume of distribution, and cytochrome P450-independent elimination
